In general, IC50 refers to the concentration at which inhibition is half-maximal.

Our source for the IC50 values is patent publication US9637491B2, “Pyrazolo[4,3-D]pyrimidines as kinase inhibitors” (Origenis GmbH, priority 2012, dated 2017).

This assay has as its target T1, SYK kinase (Homo sapiens, UniProt P43405).
T1 construct: purchased Invitrogen, Carlsbad
The experiment in a line: SYK assay (OMNIA Kinase Assay, Invitrogen). It counts as biochemical. The settings on record: SYK Activities; 1 mM ATP, 10 μM Omnia Peptide Substrate Tyr 7, 30° C. In outline: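 SYK was added last to start phosphorylation of a chelation-enhanced SOX peptide substrate (10 μM) in the presence of 1 mM ATP and 0.2 mM DTT at 30° C. Kinetic readings at λex 360/λem 485 nm over 30 min gave velocities, fitted sigmoidally against compound concentration to give IC50.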

As to `COCCCn1cc(Nc2nc(-c3cnn(C)c3)nc3cn[nH]c23)cn1` [Example 436, N-(1-(3-methoxypropyl)-1H-pyrazol-4-yl)-5-(1-methyl-1H-pyrazol-4-yl)-1H-pyrazolo[4,3-d]pyrimidin-7-amine], the IC50 lay within 100 to 1000 nM. In the case of `O=S1(=O)CCc2ccc(Nc3nc(-c4cccs4)nc4cn[nH]c34)cc21` [Example 17, 6-((5-(thiophen-2-yl)-1H-pyrazolo[4,3-d]pyrimidin-7-yl)amino)-2,3-dihydrobenzo[b]thiophene 1,1-dioxide] it was 100 to 1000 nM; in that of `c1nn(C2CCCOC2)cc1Nc1nc(-c2ccc3cn[nH]c3c2)nc2cn[nH]c12` (centres unmarked) [Example 505, 5-(1H-indazol-6-yl)-N-(1-(tetrahydro-2H-pyran-3-yl)-1H-pyrazol-4-yl)-1H-pyrazolo[4,3-d]pyrimidin-7-amine], 10 to 100 nM; in that of `CS(=O)(=O)Nc1cccc(-c2nc(Nc3ccc4c(c3)NC(=O)CCC4)c3[nH]ncc3n2)c1` [Example 529, N-(3-(7-((2-oxo-2,3,4,5-tetrahydro-1H-benzo[b]azepin-8-yl)amino)-1H-pyrazolo[4,3-d]pyrimidin-5-yl)phenyl)methanesulfonamide], 100 to 1000 nM.

With `CCCc1nc(Nc2ccc(N3CCOCC3)cc2)c2[nH]ncc2n1` [Example 386, N-(4-morpholinophenyl)-5-propyl-1H-pyrazolo[4,3-d]pyrimidin-7-amine], the IC50 fell in the range of 100 to 1000 nM. The figure for `CC(=O)N1CCN(c2ccc(Nc3nc(-c4ccon4)nc4cn[nH]c34)cc2)CC1` [Example 72, 1-(4-(4-((5-(isoxazol-3-yl)-1H-pyrazolo[4,3-d]pyrimidin-7-yl)amino)phenyl)piperazin-1-yl)ethan-1-one] is 100 to 1000 nM; for `CN1CCN(c2ccc(Nc3nc(-c4ccoc4)nc4cn[nH]c34)cn2)CC1` [Example 108, 5-(furan-3-yl)-N-(6-(4-methylpiperazin-1-yl)pyridin-3-yl)-1H-pyrazolo[4,3-d]pyrimidin-7-amine] it is 100 to 1000 nM. In the case of `COCCn1ccc(Nc2nc(C3CCC3)nc3cn[nH]c23)cc1=O` [Example 226, 4-((5-cyclobutyl-1H-pyrazolo[4,3-d]pyrimidin-7-yl)amino)-1-(2-methoxyethyl)pyridin-2(1H)-one], the IC50 lay in the range of 100 to 1000 nM. In the case of `CC(C)C(C)n1cc(Nc2nc(-c3ccc4cn[nH]c4c3)nc3cn[nH]c23)cn1` (centres unmarked) [Example 469, 5-(1H-indazol-6-yl)-N-(1-(3-methylbutan-2-yl)-1H-pyrazol-4-yl)-1H-pyrazolo[4,3-d]pyrimidin-7-amine] it was 10 to 100 nM; in that of `N#CC1(n2cc(Nc3nc(-c4ccco4)nc4cn[nH]c34)cn2)CCCCC1` [Example 213, 1-(4-((5-(furan-2-yl)-1H-pyrazolo[4,3-d]pyrimidin-7-yl)amino)-1H-pyrazol-1-yl)cyclohexanecarbonitrile], 100 to 1000 nM; in that of `Fc1cccc(F)c1-c1nc(Nc2cnn(C3CCOCC3)c2)c2[nH]ncc2n1` [Example 439, 5-(2,6-difluorophenyl)-N-(1-(tetrahydro-2H-pyran-4-yl)-1H-pyrazol-4-yl)-1H-pyrazolo[4,3-d]pyrimidin-7-amine], 100 to 1000 nM. The figure for `OCCn1cc(Nc2nc(-c3nc4ccccc4o3)nc3cn[nH]c23)cn1` [Example 444, 2-(4-((5-(benzo[d]oxazol-2-yl)-1H-pyrazolo[4,3-d]pyrimidin-7-yl)amino)-1H-pyrazol-1-yl)ethan-1-ol] is 100 to 1000 nM. In the case of `COCCCn1cc(Nc2nc(-c3ccco3)nc3cn[nH]c23)cn1` [Example 215, 5-(furan-2-yl)-N-(1-(3-methoxypropyl)-1H-pyrazol-4-yl)-1H-pyrazolo[4,3-d]pyrimidin-7-amine] it was below 10 nM. `CC(C)(C#N)n1cc(Nc2nc(-c3ccoc3)nc3cn[nH]c23)cn1` [Example 203, 2-(4-((5-(furan-3-yl)-1H-pyrazolo[4,3-d]pyrimidin-7-yl)amino)-1H-pyrazol-1-yl)-2-methylpropanenitrile]: the IC50 lay in the range of 100 to 1000 nM.

Compound `CC(=O)N1CCC(n2cc(Nc3nc(-c4ccco4)nc4cn[nH]c34)cn2)CC1` [Example 196, 1-(4-(4-((5-(furan-2-yl)-1H-pyrazolo[4,3-d]pyrimidin-7-yl)amino)-1H-pyrazol-1-yl)piperidin-1-yl)ethan-1-one] yielded an IC50 below 10 nM. In the case of `COCC(COC)n1cc(Nc2nc(-c3ccc4cn[nH]c4c3)nc3cn[nH]c23)cn1` [Example 448, N-(1-(1,3-dimethoxypropan-2-yl)-1H-pyrazol-4-yl)-5-(1H-indazol-6-yl)-1H-pyrazolo[4,3-d]pyrimidin-7-amine] it was 10 to 100 nM; in that of `c1cncc(-c2nc(Nc3ccc(N4CCOCC4)nc3)c3[nH]ncc3n2)c1` [Example 126, N-(6-morpholinopyridin-3-yl)-5-(pyridin-3-yl)-1H-pyrazolo[4,3-d]pyrimidin-7-amine], 100 to 1000 nM. The figure for `c1nn(C2CCOCC2)cc1Nc1nc(-c2ccc3cn[nH]c3c2)nc2cn[nH]c12` [Example 134, 5-(1H-indazol-6-yl)-N-(1-(tetrahydro-2H-pyran-4-yl)-1H-pyrazol-4-yl)-1H-pyrazolo[4,3-d]pyrimidin-7-amine] is below 10 nM; for `FC(F)(F)Cn1cc(Nc2nc(C3CC3)nc3cn[nH]c23)cn1` [Example 374, 5-cyclopropyl-N-(1-(2,2,2-trifluoroethyl)-1H-pyrazol-4-yl)-1H-pyrazolo[4,3-d]pyrimidin-7-amine] it is 10 to 100 nM; for `CN(C)C(=O)Cn1cc(Nc2nc(-c3ccco3)nc3cn[nH]c23)cn1` [Example 452, 2-(4-((5-(furan-2-yl)-1H-pyrazolo[4,3-d]pyrimidin-7-yl)amino)-1H-pyrazol-1-yl)-N,N-dimethylacetamide] it is 100 to 1000 nM.

Compound `CN1CCC(n2cc(Nc3nc(-c4cnn(C)c4)nc4cn[nH]c34)cn2)CC1` [Example 190, 5-(1-methyl-1H-pyrazol-4-yl)-N-(1-(1-methylpiperidin-4-yl)-1H-pyrazol-4-yl)-1H-pyrazolo[4,3-d]pyrimidin-7-amine] had an IC50 of 10 to 100 nM. The compound `CC(C)(O)Cn1cc(Nc2nc(-c3ccco3)nc3cn[nH]c23)cn1` [Example 451, 1-(4-((5-(furan-2-yl)-1H-pyrazolo[4,3-d]pyrimidin-7-yl)amino)-1H-pyrazol-1-yl)-2-methylpropan-2-ol] came in with a concentration for half-maximal inhibition (IC50) of 10 to 100 nM. The figure for `CC(=O)N1CCC(n2cc(Nc3nc(C4CC4)nc4cn[nH]c34)cn2)CC1` [Example 204, 1-(4-(4-((5-cyclopropyl-1H-pyrazolo[4,3-d]pyrimidin-7-yl)amino)-1H-pyrazol-1-yl)piperidin-1-yl)ethan-1-one] is below 10 nM; for `c1cc(-c2nc(Nc3ccc(N4CCOCC4)cc3)c3[nH]ncc3n2)co1` [Example 94, 5-(furan-3-yl)-N-(4-morpholinophenyl)-1H-pyrazolo[4,3-d]pyrimidin-7-amine] it is 10 to 100 nM. The compound `CC(C)(C)N1CCN(c2ccc(Nc3nc(-c4ccco4)nc4cn[nH]c34)cc2)CC1` [Example 112, N-(4-(4-(tert-butyl)piperazin-1-yl)phenyl)-5-(furan-2-yl)-1H-pyrazolo[4,3-d]pyrimidin-7-amine] registered a concentration for half-maximal inhibition (IC50) below 10 nM. In the case of `O=C1CCCc2ccc(Nc3nc(-c4ccoc4)nc4cn[nH]c34)cc2N1` [Example 107, 8-((5-(furan-3-yl)-1H-pyrazolo[4,3-d]pyrimidin-7-yl)amino)-4,5-dihydro-1H-benzo[b]azepin-2(3H)-one] it was 10 to 100 nM.
